Test results from article PMC11433870, “Neurotoxicity, Neuroprotection, In Vitro MAOA/MAOB Inhibitory Activity Assessment, Molecular Docking, and Permeability Assay Studies of Newly Synthesized Hydrazones Containing a Pyrrole Ring” (Molecules, 2024).
Several values for one entry are separate records, joined by “and”; a condition that tells them apart may be missing. Equal values may be shown once.

Key:
[1] = test system: isolated rat brain synaptosomes; assay: 6-OHDA-induced neurotoxicity model: synaptosomal viability; assay type: cell-based; conditions: toxic agent applied alone at 150 µM, compared to control (untreated synaptosomes)
Protocol: (§1) Synaptosomes and mitochondria were obtained by multiple, subcellular fractionation using a Percoll gradient. The necessary brain homogenate was prepared and centrifuged at 1000× g for 5 min at +4 °C. After centrifugation, the supernatants were collected and centrifuged again at 1000× g for 5 min at +4 °C. The supernatants from the two centrifugations were mixed and distributed into four tubes. The tubes were centrifuged at 10,000× g for 20 min at +4 °C three times. The last two centrifugations were for purification of synaptosomes and mitochondria.
The isolation of the required fractions was based on the formation of a colloidal solution of silicon (Percoll), as per the procedure, including: 1. Preparation of a 90% stock solution of Percoll, followed by preparation of two Percoll solutions of different percentages: 16% and 10%. An amount of 4 mL of each of the prepared 16% and 10% Percoll solutions was placed in six test tubes. A 90% Percoll (7.5% Percoll) was added to the precipitate obtained from the previous step from the last centrifugation. The obtained mixtures in all 12 tubes were centrifuged for 20 min at 15,000× g +4 °C. […]
After 1 h incubation with the substances and toxic agent, synaptosomes were centrifuged on a microcentrifuge for 1 min at 15,000× g. […] After dissolution, the amount of formazan is measured spectrophotometrically at λ = 580 nm.

[2] = test system: isolated rat brain synaptosomes; assay: 6-OHDA-induced neurotoxicity model: GSH level; assay type: cell-based; conditions: for preservation of GSH level: 50 µM in combination with 6-OHDA (150 µM), compared to the toxic agent
Protocol: as §1
(§2) The isolation of the required fractions was based on the formation of a colloidal solution of silicon (Percoll), as per the procedure, including: 1. Preparation of a 90% stock solution of Percoll, followed by preparation of two Percoll solutions of different percentages: 16% and 10%. An amount of 4 mL of each of the prepared 16% and 10% Percoll solutions was placed in six test tubes. A 90% Percoll (7.5% Percoll) was added to the precipitate obtained from the previous step from the last centrifugation. The obtained mixtures in all 12 tubes were centrifuged for 20 min at 15,000× g +4 °C. After centrifugation, three layers are formed in the tubes. The bottom layer contains mitochondria, the top layer contains lipids, and the middle layer—at the 16% to 10% Percoll limit—contains synaptosomes. The respective layer from each tube is removed through a glass pasteurizer and collected into one. Buffer B + glucose is added to it. The mixture was centrifuged at 10,000× g for 20 min at +4 °C. Thus, the isolation buffer is exchanged with the incubation buffer. After centrifugation, the pellet where the synaptosomes are mixed and made up with buffer B + glucose.
(§3) Synaptosomes and mitochondria were incubated with the test substances at a concentration of 50 µM for 1 h.
Synaptosomes were incubated with 6-OHDA (150 μM) for 1 h.
(§4) After precipitation of the proteins with trichloroacetic acid, the thiol groups in the supernatant were determined by DTNB, which produced a yellow-colored compound that absorbs light at λ = 412 nm. After incubation, synaptosomes were centrifuged at 4000× g for 3 min. The supernatant was removed and the pellet taken for GSH determination. It was treated with 5% trichloroacetic acid, then left for 10 min on ice. It was centrifuged at 8000× g for 10 min (2 °C). The supernatant is taken for GSH determination and frozen at −20 °C. Immediately before measurement, the samples are neutralized with 5N NaOH [58].

[3] = test system: isolated rat brain synaptosomes; assay: Neurotoxicity: synaptosomal viability (MTT), substances applied alone; assay type: cell-based; conditions: 50 µM applied alone, 1 h, compared to control (untreated synaptosomes)
Protocol: as §1, §2, §3
After 1 h incubation with the substances and toxic agent, synaptosomes were centrifuged on a microcentrifuge for 1 min at 15,000× g. The pellet was mixed gently with buffer B + glucose, and the supernatant where 6-OHDA was discarded to prevent oxidation of MTT. Centrifuge again at 15,000× g for 1 min. After the second wash, buffer B + glucose was added to the pellet. To the ‘washed’ synaptosomes, 60 µL of MTT solution is added. The plates were incubated with the MTT solution at 37 °C for 10 min. After incubation, the samples were centrifuged at 15,000× g for 2 min. The excess liquid was removed, and a DMSO solution was used to dissolve the formed formazan crystals. After dissolution, the amount of formazan is measured spectrophotometrically at λ = 580 nm.

[4] = test system: isolated rat brain synaptosomes; assay: Neurotoxicity: reduced glutathione (GSH) level in synaptosomes, substances applied alone; assay type: cell-based; conditions: 50 µM applied alone, 1 h, compared to control
Protocol: as §1, §2, §3, §4

[5] = test system: isolated rat brain mitochondria; assay: Neurotoxicity: MDA production in brain mitochondria, substances applied alone; assay type: cell-based; conditions: 50 µM applied alone, compared to control
Protocol: as §1, §2, §3
To the mitochondria was added 0.3 mL of 0.2% thiobarbituric acid and 0.25 mL of sulfuric acid (0.05 M), and the mixture was boiled for 30 min. After boiling, the tubes were placed on ice, and 0.4 mL of n-butanol was added to each, then centrifuged at 3500× g for 10 min. The amount of MDA was determined spectrophotometrically at 532 nm.

[6] = test system: isolated rat brain mitochondria; assay: Neurotoxicity: GSH level in brain mitochondria, substances applied alone; assay type: cell-based; conditions: 50 µM applied alone, compared to control
Protocol: as §1, §2
[…]. After centrifugation of the homogenate at 6000× g, a 0.04% solution of DTNB was added to the supernatant to give a yellow color, the determination being spectrophotometric at 412 nm.

[7] = test system: isolated rat brain microsomes; assay: Neurotoxicity: MDA production in brain microsomes, substances applied alone; assay type: cell-based; conditions: 50 µM applied alone, compared to control
Protocol: (§5) The brain was homogenized in 9 volume parts of 0.1 M Tris buffer containing: 0.1 mM dithiothreitol, 0.1 mM phenylmethylsulfonyl fluoride, 0.2 mM EDTA, 1.15% KCl, and 20% (v/v) glycerol (pH 7.4). The resulting homogenate was centrifuged twice at 17,000× g for 30 min. The supernatants from the two centrifugations were pooled and centrifuged twice at 100,000× g for 1 h. The pellet was frozen in 0.1 M Tris buffer.
(§6) After completion of incubation of the microsomes with the substances and toxic agent, the reaction was stopped by the addition of 0.5 mL of 20% trichloroacetic acid, followed by 0.5 mL of 0.67% thiobarbituric acid. The ongoing reactions are associated with the formation of a colored complex between the malondialdehyde formed and thiobarbituric acid. The determination of MDA was spectrophotometric at 535 nm. A molar extinction coefficient of […] was used for the calculation.

[8] = test system: isolated rat brain microsomes; assay: Fe2+/AA-induced non-enzyme lipid peroxidation model: MDA production; assay type: cell-based; conditions: 50 µM in combination with Fe2+/AA, compared to the toxic agent
Protocol: as §5
Non-enzyme-induced lipid peroxidation was induced with 20 μM ferrous sulfate solution and 0.5 mM ascorbic acid solution [62].
as §6

[9] = molecular target: T1, human recombinant MAOA enzyme (hMAOA) (Homo sapiens, UniProt P21397); assay: Human recombinant MAOA enzyme activity (fluorometric, Amplex Red); assay type: biochemical; conditions: read-out: IC50 (EC50), (µM ± SD) hMAOA
T1 sequence (P21397 1-527): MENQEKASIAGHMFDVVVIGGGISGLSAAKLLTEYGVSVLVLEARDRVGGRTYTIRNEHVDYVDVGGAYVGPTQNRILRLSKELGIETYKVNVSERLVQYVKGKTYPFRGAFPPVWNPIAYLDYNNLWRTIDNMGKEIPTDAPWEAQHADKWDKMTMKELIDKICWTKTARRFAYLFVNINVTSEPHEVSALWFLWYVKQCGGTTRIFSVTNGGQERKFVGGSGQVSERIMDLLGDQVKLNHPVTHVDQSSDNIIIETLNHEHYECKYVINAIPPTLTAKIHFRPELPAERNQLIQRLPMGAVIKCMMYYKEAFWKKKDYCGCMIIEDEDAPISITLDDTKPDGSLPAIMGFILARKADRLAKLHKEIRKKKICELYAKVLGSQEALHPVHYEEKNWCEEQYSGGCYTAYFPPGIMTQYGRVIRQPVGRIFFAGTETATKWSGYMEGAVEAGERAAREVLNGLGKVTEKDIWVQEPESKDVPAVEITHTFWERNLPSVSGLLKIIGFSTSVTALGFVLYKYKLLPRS
Protocol: (§7) The activity of recombinant human MAOA/B was determined fluorometrically. Tyramine hydrochloride was used as substrate. The activity is determined by detection of H2O2 production. This production is in turn reported by binding to horseradish peroxidase using N-acetyl-3,7-dihydroxyphenoxazine (AmplexRed, Thermo Fisher Scientific, Waltham, MA, USA) [63].
(§8) Working solutions of the test substances, reagents, and human recombinant MAOA/B enzyme (hMAOA/B) were prepared in reaction buffer according to the manufacturer’s instructions. A pure working solution of MAOA/B in reaction buffer, a working solution of MAOA/B containing hydrogen peroxide, and a pure reaction buffer were used as controls. Substances were applied at a final concentration of 1 µM. The substances together with hMAOB were placed in a 96-well plate (8 samples for each substance), and then the plate was placed in an incubator for 30 min (in the dark, at 37 °C). Fluorimetric readings were performed in a Synergy 2 Microplate Reader at two wavelengths (570 nm and 690 nm).

[10] = molecular target: T2, human recombinant MAOB enzyme (hMAOB) (Homo sapiens, UniProt P27338); assay: Human recombinant MAOB enzyme activity (fluorometric, Amplex Red); assay type: biochemical; conditions: for inhibition at 1 µM: compared to control (pure hMAOB); for IC50: read-out: IC50 (EC50), (µM ± SD) hMAOB;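 as to all read-outs here: tyramine as substrate, H2O2 formation detected by horseradish peroxidase coupled Amplex Red fluorescence read at 570 and 690 nm, compounds incubated with enzyme 30 min at 37 °C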
T2 sequence (P27338 1-520): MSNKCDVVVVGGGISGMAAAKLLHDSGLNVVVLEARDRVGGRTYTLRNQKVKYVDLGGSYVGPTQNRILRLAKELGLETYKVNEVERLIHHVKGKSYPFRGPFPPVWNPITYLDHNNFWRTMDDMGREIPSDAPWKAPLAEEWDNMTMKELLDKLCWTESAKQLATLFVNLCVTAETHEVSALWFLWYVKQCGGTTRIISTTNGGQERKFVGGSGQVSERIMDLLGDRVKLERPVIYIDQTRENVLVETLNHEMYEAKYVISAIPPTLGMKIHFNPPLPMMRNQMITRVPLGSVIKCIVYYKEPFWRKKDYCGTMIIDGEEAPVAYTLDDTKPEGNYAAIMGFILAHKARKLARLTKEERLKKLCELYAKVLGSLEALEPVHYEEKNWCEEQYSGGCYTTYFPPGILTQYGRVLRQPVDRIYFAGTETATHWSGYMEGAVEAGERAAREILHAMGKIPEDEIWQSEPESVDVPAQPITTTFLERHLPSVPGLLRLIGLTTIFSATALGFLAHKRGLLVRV
Protocol: as §7, §8

[11] = pH 7.4, 50 µM, 4 h, 25 °C; Pe calculated in 10^−6 cm/s, presented as −logPe
[12] = test system: isolated rat brain mitochondria; assay: t-BuOOH-induced oxidative stress model: GSH level; conditions: 50 µM in combination with t-BuOOH (75 µM), compared to the toxic agent
[13] = test system: isolated rat brain mitochondria; assay: t-BuOOH-induced oxidative stress model: MDA production; conditions: 50 µM in combination with t-BuOOH (75 µM), compared to the toxic agent

| Compound | decrease in synaptosomal viability by toxic agent alone [1] | decrease in GSH level by toxic agent alone ([2]; toxic agent applied alone at 150 µM, compared to control) | decrease of synaptosomal viability [3] | decrease of glutathione (GSH) level [4] | increase of MDA production [5] | decrease of GSH level [6] | increase of MDA production [7] | preservation of GSH level [2] | decrease of MDA production [8] | IC50 [9] | SI: hMAOB selectivity index = IC50(hMAOA)/IC50(hMAOB) [10] | inhibition at 1 µM [10] | IC50 [10] | PAMPA BBB −logPe [11] | preservation of GSH level [12] | reduction of MDA production [13] |
| --- | --- | --- | --- | --- | --- | --- | --- | --- | --- | --- | --- | --- | --- | --- | --- | --- |
| NCCc1cc(O)c(O)cc1O [6-OHDA, 6-hydroxydopamine, reference compound] | 50% | 50% |  |  |  |  |  |  |  |  |  |  |  |  |  |  |
| CCOC(=O)c1cc(-c2ccc(Br)cc2)n(CCC(=O)NN=Cc2ccc([N+](=O)[O-])cc2)c1C [8c] |  |  | 30% | 25% | 66% | 25% | 60% | 50% | 27% | > 100 µM | >123 | 20% | 0.814 ± 0.2 µM | 4.631 ± 0.047 | 40% | 5% |
| CCOC(=O)c1cc(-c2ccc(Br)cc2)n(CCC(=O)NN=Cc2cc(OC)c(O)c(OC)c2)c1C [8d] |  |  | 20% | 15% | 40% | 15% | 30% | 70% | 54% | > 100 µM | >204 | 45% | 0.49 ± 0.09 µM | 4.464 ± 0.026 and 4.464 | 80% | 38% |
| CCOC(=O)c1cc(-c2ccc(Br)cc2)n(CCC(=O)NN=Cc2ccc(OC)cc2OC)c1C [8e] |  |  | 35% | 20% | 69% | 25% | 63% | 50% | 25% | > 100 µM | >122 | 20% | 0.817 ± 0.09 µM | 5.714 and 5.714 ± 0.041 | 60% | 11% |
